Results as given in patent US4210671A, “Abietamide derivatives, their production and use” (priority 1974, dated 1980).

Tested on: cholesterol in blood
Test: Reduction of blood cholesterol in rats fed a cholesterol diet
Format: in vivo
Details: male rats, 3 days, relative value: control group = 0, normal group = 100, * 5%, ** 1% significance over control; for % Inhibition (blood cholesterol), Dose in Diet 0.03%: 0.03% test compound in diet with 1% cholesterol and 0.25% sodium cholate; for % Inhibition (blood cholesterol), Dose in Diet 0.1%: 0.1% test compound in diet with 1% cholesterol and 0.25% sodium cholate
Protocol: A completely synthetic diet containing 1% of cholesterol, 0.25% of sodium cholate and 0.03% and 0.1% of the test compound is given to a group of 6 male rats having a body weight of about 50 g consecutively for 3 days, and the rats are fasted overnight. Then, the rats are decapitated, and their blood is collected to determine the cholesterol concentration in the collected blood. The concentration of cholesterol in blood is measured with Technicon Autoanalyzer (Technicon Laboratory: Method File N-24a).
Each value shown in the Table is a relative value determined based on the supposition that the value of the control group (the cholesterol-administered group) is 0 and the value of the normal group (the non-cholestero-administered group) is 100.

Row | Compound | % Inhibition (blood cholesterol), Dose in Diet 0.03% | % Inhibition (blood cholesterol), Dose in Diet 0.1%
1 | CC(C)C1=CC2=CC[C@@H]3[C@](C)(CCC[C@@]3(C)C(=O)NC3CCCC3)[C@H]2CC1 [N-Cyclopentylabietamide] | 11% | 32%
2 | N-α-Phenylethyldihydroabietamide | 71% | 99%
3 | N-Methyl-N-phenyldihydroabietamide | -8% | 27%
4 | N-Benzyldihydroabietamide | 25% | 64%
